Test results taken from ChEMBL document CHEMBL3886737, “5-chloro-2-difluoromethoxyphenyl pyrazolopyrimidine compounds, compositions and methods of use thereof” (2016).

target: Tyrosine-protein kinase JAK1 (Homo sapiens, UniProt P23458); test: (§1) JAK Enzyme Assay: The activity of the isolated recombinant JAK1 and JAK2 kinase domain was measured by monitoring phosphorylation of a peptide derived from JAK3 ([…] fluorescently labeled on the N-terminus with 5-carboxyfluorescein) using the Caliper LabChip® technology (Caliper Life Sciences, Hopkinton, Mass.). […] Reactions were incubated at 22° C. in 384-well polypropylene microtiter plates for 30 minutes and then stopped by addition of 25 μL of an EDTA containing solution (100 mM HEPES buffer (pH 7.2), 0.015% Brij-35, 150 mM EDTA), resulting in a final EDTA concentration of 50 mM. After termination of the kinase reaction, the proportion of phosphorylated product was determined as a fraction of total peptide substrate using the Caliper LabChip® 3000 according to the manufacturer's specifications.
Sequence (P23458 whole entry, the tested form may be a part): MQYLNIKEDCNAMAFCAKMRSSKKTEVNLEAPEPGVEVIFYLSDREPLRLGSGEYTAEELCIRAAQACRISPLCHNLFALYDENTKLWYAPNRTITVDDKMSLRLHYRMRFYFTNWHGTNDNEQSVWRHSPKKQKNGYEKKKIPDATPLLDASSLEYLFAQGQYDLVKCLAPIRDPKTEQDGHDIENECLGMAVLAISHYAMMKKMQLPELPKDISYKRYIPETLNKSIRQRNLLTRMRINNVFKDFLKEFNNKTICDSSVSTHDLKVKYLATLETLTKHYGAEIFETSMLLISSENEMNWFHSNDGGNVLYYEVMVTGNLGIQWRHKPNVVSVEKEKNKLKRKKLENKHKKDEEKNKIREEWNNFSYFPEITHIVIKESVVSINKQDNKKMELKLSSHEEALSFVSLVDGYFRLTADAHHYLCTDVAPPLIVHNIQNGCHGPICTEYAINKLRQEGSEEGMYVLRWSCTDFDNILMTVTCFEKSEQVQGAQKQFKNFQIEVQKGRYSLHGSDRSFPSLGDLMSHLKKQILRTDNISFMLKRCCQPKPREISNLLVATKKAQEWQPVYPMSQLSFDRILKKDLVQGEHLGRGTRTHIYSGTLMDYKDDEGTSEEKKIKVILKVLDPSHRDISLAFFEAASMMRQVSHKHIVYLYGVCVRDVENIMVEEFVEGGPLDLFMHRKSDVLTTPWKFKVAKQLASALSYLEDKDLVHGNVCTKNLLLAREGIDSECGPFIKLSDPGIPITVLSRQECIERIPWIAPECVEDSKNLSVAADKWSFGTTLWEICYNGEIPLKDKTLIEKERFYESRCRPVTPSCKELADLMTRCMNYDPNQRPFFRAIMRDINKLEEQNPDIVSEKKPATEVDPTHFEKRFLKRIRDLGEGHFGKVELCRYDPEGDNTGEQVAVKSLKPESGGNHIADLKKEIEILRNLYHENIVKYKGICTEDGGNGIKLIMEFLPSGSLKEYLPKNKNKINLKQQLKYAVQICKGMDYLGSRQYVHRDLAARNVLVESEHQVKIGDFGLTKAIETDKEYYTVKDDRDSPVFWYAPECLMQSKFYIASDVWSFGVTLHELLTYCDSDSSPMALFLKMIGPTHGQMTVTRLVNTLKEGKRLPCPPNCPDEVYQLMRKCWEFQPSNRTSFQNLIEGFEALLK

SMILES | Ki
CN1CCC(n2cc(NC(=O)c3c(N)nn4cccnc34)c(-c3cc(Cl)ccc3OC(F)F)n2)CC1 | 0.76 nM
C[N+](C)(CCCc1ccccc1)C1CCN(C(=O)Cn2cc(NC(=O)c3cnn4cccnc34)c(-c3cc(Cl)ccc3OC(F)F)n2)CC1 | 1.21 nM
CN(C)C1CCN(C(=O)C2CCN(c3nc(-c4cc(Cl)ccc4OC(F)F)c(NC(=O)c4cnn5cccnc45)s3)CC2)CC1 | 0.89 nM

More lines, now with the values ahead:

Ki | SMILES
0.3 nM | N#C[C@H]1CCCN(C2CCN(C(=O)Cn3cc(NC(=O)c4cnn5cccnc45)c(-c4cc(Cl)ccc4OC(F)F)n3)CC2)C1
0.23 nM | O=C(Nc1cn(CC(=O)N2CCC(N3CC[S+]([O-])CC3)CC2)nc1-c1cc(Cl)ccc1OC(F)F)c1cnn2cccnc12
0.49 nM | CCOC(=O)CCN1CCN(C(=O)Cn2cc(NC(=O)c3cnn4cccnc34)c(-c3cc(Cl)ccc3OC(F)F)n2)CC1

target: Tyrosine-protein kinase JAK2 (Homo sapiens, UniProt O60674); test: as §1
Sequence (O60674 whole entry): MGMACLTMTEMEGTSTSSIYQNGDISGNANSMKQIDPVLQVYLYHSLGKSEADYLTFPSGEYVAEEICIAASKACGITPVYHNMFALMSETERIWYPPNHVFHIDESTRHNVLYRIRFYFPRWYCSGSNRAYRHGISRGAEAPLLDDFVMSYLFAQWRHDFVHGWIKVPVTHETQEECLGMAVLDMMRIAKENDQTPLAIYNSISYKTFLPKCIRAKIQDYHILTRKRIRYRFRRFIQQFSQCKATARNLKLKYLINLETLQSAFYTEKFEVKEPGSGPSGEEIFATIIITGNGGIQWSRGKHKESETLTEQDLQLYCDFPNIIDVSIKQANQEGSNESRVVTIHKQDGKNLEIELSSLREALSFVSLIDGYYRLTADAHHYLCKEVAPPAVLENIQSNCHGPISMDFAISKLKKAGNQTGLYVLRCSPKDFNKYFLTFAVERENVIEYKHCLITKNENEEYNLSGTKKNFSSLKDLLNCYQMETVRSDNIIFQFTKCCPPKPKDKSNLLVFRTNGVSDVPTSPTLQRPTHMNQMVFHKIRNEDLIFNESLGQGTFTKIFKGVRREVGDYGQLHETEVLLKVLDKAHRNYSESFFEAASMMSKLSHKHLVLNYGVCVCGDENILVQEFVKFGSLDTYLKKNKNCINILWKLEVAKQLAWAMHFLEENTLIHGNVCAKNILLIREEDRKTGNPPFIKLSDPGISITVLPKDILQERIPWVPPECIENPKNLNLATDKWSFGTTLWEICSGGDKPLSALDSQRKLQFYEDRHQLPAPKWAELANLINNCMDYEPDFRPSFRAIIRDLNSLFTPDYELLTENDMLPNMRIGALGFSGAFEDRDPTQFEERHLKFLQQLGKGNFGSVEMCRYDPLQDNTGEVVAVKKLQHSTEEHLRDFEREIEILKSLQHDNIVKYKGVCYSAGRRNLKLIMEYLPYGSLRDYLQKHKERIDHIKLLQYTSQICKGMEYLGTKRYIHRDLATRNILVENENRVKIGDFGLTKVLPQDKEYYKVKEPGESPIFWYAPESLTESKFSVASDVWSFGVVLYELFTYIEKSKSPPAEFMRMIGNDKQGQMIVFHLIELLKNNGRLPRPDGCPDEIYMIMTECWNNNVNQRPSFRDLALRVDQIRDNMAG

SMILES | Ki
C[N+](C)(CCCc1ccccc1)C1CCN(C(=O)Cn2cc(NC(=O)c3cnn4cccnc34)c(-c3cc(Cl)ccc3OC(F)F)n2)CC1 | 2.9 nM
CN(C)C1CCN(C(=O)C2CCN(c3nc(-c4cc(Cl)ccc4OC(F)F)c(NC(=O)c4cnn5cccnc45)s3)CC2)CC1 | 0.86 nM
CN(CC1(C#N)CC1)C1CCN(C(=O)Cn2cc(NC(=O)c3cnn4cccnc34)c(-c3cc(Cl)ccc3OC(F)F)n2)CC1 | 0.64 nM
Nc1nn2cccnc2c1C(=O)Nc1cn(CC(=O)N2CC[C@@H](O)C2)nc1-c1cc(Cl)ccc1OC(F)F | 0.13 nM

The next lines start with the values.

Ki | SMILES
0.76 nM | N#C[C@H]1CCCN(C2CCN(C(=O)Cn3cc(NC(=O)c4cnn5cccnc45)c(-c4cc(Cl)ccc4OC(F)F)n3)CC2)C1
0.63 nM | O=C(Nc1cn(CC(=O)N2CCC(N3CC[S+]([O-])CC3)CC2)nc1-c1cc(Cl)ccc1OC(F)F)c1cnn2cccnc12
